Data on 11 sequences can be found in US8709405B2, “Cancer vaccines containing epitopes of oncofetal antigen” (South Alabama Medical Science Foundation, priority 2002, dated 2014).

Assay type in all cases: cell-based, BALB/c mouse
One assay relates to Th1 clone H1. Nature of the assay: BUdR incorporation ELISA proliferation assay, Th1 clone H1. The conditions noted are these: Table 12. The protocol:
(§1) The epitopes recognized by 15 iLRP-reactive T cell clones derived from either naive BALB/c mice, BALB/c mice bearing MCA1315 fibrosarcoma tumors, or from BALB/c mice immunized with either 1 or 10 μg of recombinant murine iLRP were determined by testing the proliferation of those clones to overlapping peptides spanning the region of the iLRP molecule recognized by each clone in the presence of IL-2, as a growth factor for T cells and irradiated, T cell-depleted, syngeneic spleen cells as antigen-presenting cells. Proliferation was measured through ELISA determination of 5-bromodeoxyuridine incorporation during culture.
(§2) More specifically, the epitope-specificity of the iLRP-specific Th1, Tc, and Ts clones was determined using a modification of the 5′-bromodeoxyuridine (BudR) incorporation ELISA technique described in Rohrer, J. W., A. L. Barsoum, D. L. Dyess, J. A. Tucker, and J. H. Coggin, Jr. 1999. Human breast carcinoma patients develop clonable oncofetal antigen-specific effector and regulatory T lymphocytes. J. Immunol. 162:6880, using the Biotrak BUdR incorporation assay (Amersham, Arlington Heights, Ill.). […] When the required color density was reached, the reaction was stopped by adding 25 μl of 1M sulfuric acid to each well and the plate read on a microELISA reader at 450 nm. […]
On the technique in general: An ELISA detects its analyte on a solid surface through an enzyme-linked reagent.

The next assay concerns Th1 clone L3. Nature of the assay: BUdR incorporation ELISA proliferation assay, Th1 clone L3. The conditions noted are these: Table 12. The protocol: as §1, §2
Assay [1] has as its system CD8 iLRP-specific T cell clone M11 (Ts). The assay can be described thus: BUdR incorporation ELISA proliferation assay, Ts clone M11. The conditions noted are these: Table 5. How it is done:
as §1, §2

The subject of another assay is Tc Clone L2. The assay can be described thus: BUdR incorporation ELISA proliferation assay, Tc clone L2. The conditions noted are these: Table 11. How it is done: as §1, §2
The subject of a further assay is Th1 Clone NC1. The assay can be described thus: BUdR incorporation ELISA proliferation assay, Th1 clone NC1. The conditions noted are these: Table 11. The protocol: as §1, §2
In a further assay the test system is CD8 T cell clone M3 (Tc). Nature of the assay: BUdR incorporation ELISA proliferation assay, Tc clone M3. The conditions noted are these: Table 4. How it is done:
as §1, §2

For another assay, the system named is Th1 clone M2. The assay can be described thus: BUdR incorporation ELISA proliferation assay, Th1 clone M2. The conditions noted are these: Table 12. The protocol:
as §1, §2

In the next assay the test system is Th1 clone NC4. Nature of the assay: BUdR incorporation ELISA proliferation assay, Th1 clone NC4. The conditions noted are these: Table 12. How it is done:
as §1, §2

[2] abbreviates: 100 ng/well, APC, 100 U/ml IL-2, two values given.

AQPEVADWSEGV [P21 (241-252)]: the “Proliferation Results (A450) of Th1 Clone H1” value in the assay on Th1 clone H1 (setting [2]) is “.02, .02 A450”. The “Response of clone L3 (in words)” value with Th1 clone L3 is given as “responded best”.

Take ATGATPIAGRFT [P18 (aa 93-104)]: the “Proliferation of clone M11 (in words)” value in assay [1] is given as “proliferated equally well”.

In the case of EEFQGEWTAPAP [P17 (225-236)], the “Proliferation of CD8 Tc clone L2 (in words)” value with Tc Clone L2 was “proliferated identically”.

On to GEWTAPAPEFTA [P18 (229-240)], for which the “Response of Th1 clone NC1 (in words)” value in the assay with Th1 Clone NC1 is reported as “responded best”. Also, the “Proliferation of CD8 Tc clone L2 (in words)” value in the assay on Tc Clone L2 was “proliferated identically”.

As for INLKRTWEKLLL [P7 (aa 49-60)], the “Proliferation of clone M3 (in words)” value in the assay on CD8 T cell clone M3 (Tc) is “proliferated to iLRP peptides 7 and 8 equally well”.

QVPSVPIQQFPT [P24 (253-264)]: the “Response of clone M2 (in words)” value with Th1 clone M2 was “responded best”.

For the sequence RTWEKLLLAARA [P8 (aa 53-64)], the “Proliferation of clone M3 (in words)” value in the assay with CD8 T cell clone M3 (Tc) is “proliferated to iLRP peptides 7 and 8 equally well”.

In the case of SAAPTAQATEWV [P30 (277-288)], the “Response of clone H1 (in words)” value in the assay with Th1 clone H1 is reported as “responded best”.

Regarding TAQATEWVGATT [P31 (281-292)], in the assay on Th1 clone L3 (setting [2]), the “Proliferation Results (A450) of Th1 Clone L3” value is “.02, .02 A450”.

Take TEWVGATTDWS [P32 (285-295)]: the “Response of clone NC4 (in words)” value in the assay with Th1 clone NC4 is “responded best”.

For TPIAGRFTPGTF [P19 (aa 97-108)], in assay [1], the “Proliferation of clone M11 (in words)” value is “proliferated equally well”.
